“And” between values parts separate entries of the source, which are not always exact repeats. Equal entries are not always repeated. Marks after values point to notes of the source that are not given here.
Assays:
Type in all cases: in vivo, rat
[1] = tested on: CIA rats; experiment: Collagen-induced arthritis (CIA) rats, arthritis severity index; details: for % Inhibition Arthritis index (AUC): vs CIA + vehicle
Description: Male Sprague Dawley rats (7-8 weeks old, n=40) were purchased from Charles River Laboratories Inc. (Wilmington, Mass., USA) and acclimated upon arrival for two weeks before being assigned randomly to their respective treatment groups: G1=Normal control (−) (n=10/group), G2=collagen-induced arthritis (CIA)+Vehicle (0.5% Carboxy Methylcellulose) (n=10/group), G3=CIA+Methotrexate (+) (75 μg/kg) (n=10/group), and G4=CIA+AMK (+) (200 mg/kg) (n=10/group). Treatment was initiated two weeks before model induction and lasted for an additional three weeks thereafter. Collagen type-II (Lot #845) from bovine nasal septum and Incomplete Freund's adjuvant (IFA) (Lot #SLBR0642v) were purchased from Elastin Products Company (Owensville, Mich., USA) and Sigma (St. Louise, Mo., USA), respectively. All materials were kept at suitable temperatures as recommended by the manufacturer. At the time of preparation, 60 mg of collagen was weighed and added to pre-chilled 15 mL 0.1 M acetic acid in a 60 mL-sized flask with a magnetic stirrer to yield 4 mg/mL concentration (Brand, et al., 2003; Rosloniec et al., 2001).
The mixture was dissolved by gently stirring overnight at 4° C. The next morning, the dissolved collagen was emulsified with equal volume of IFA (15 mL) to achieve a final concentration of 2 mg/mL collagen. Rats sedated with isoflurane were then primed intradermally with 400 μL of the emulsified collagen at the base of their tail at two sites using a 1 mL syringe fitted with a 26 G needle. The dissolved mixture was kept in an ice bucket and stirred between groups at the time of injection to preserve uniform consistency. On the seventh day, rats were inoculated with a booster dose of 2 mg/mL type II collagen emulsified with equal volume of incomplete adjuvant at 100 μL/rat/site.
Clinical findings such as arthritis severity index, paw thickness, ankle diameter (using Digital Absolute, Model #PK-0505CPX, Mitutoyo Corporation, Kawasaki, Japan), and pain sensitivity (using Randall Salitto, IITC Life Science Inc., Woodland Hills, Calif., USA) were monitored during the course of study. Urine was collected from overnight fasted rats using metabolic cages after three weeks of treatment post-model induction. At Necropsy, serum from the cardiac and synovial lavage (100 μL of saline was injected into the articular cavity and aspirated back to the syringe) for biomarkers and ankle joint for histopathology were collected from each animal.
Linear trapezoid rule was used to calculate area under the curve (AUC) for days 9-21. % Inhibition={(Mean value of treatment-mean value of CIA+)/(Mean value of control-mean value of CIA)}*100.
Male Sprague Dawley rats (7-8 weeks old, n=40) were purchased from Charles River Laboratories Inc. (Wilmington, Mass., USA) and acclimated upon arrival for two weeks before being assigned randomly to their respective treatment groups: G1=Normal control (−) (n=10/group), G2=collagen-induced arthritis (CIA)+Vehicle (0.5% Carboxy Methylcellulose) (n=10/group), G3=CIA+Methotrexate (+) (0.5 mg/kg) (n=10/group), and G4=CIA+AP (+) (200 mg/kg) (n=10/group). Treatment was initiated two weeks before model induction and lasted for an additional three weeks thereafter. Collagen type-II (Lot #845) from bovine nasal septum and Incomplete Freund's adjuvant (IFA) (Lot #SLBR0642v) were purchased from Elastin Products Company (Owensville, Mich., USA) and Sigma (St. Louise, Mo., USA), respectively. All materials were kept at suitable temperatures as recommended by the manufacturer. At the time of preparation, 60 mg of collagen was weighed and added to pre-chilled 15 mL 0.1 M acetic acid in a 60 mL-sized flask with a magnetic stirrer to yield 4 mg/mL concentration (Brand, et al., 2003; Rosloniec et al., 2001). The mixture was dissolved by gently stirring overnight at 4° C. The next morning, the dissolved collagen was emulsified with equal volume of IFA (15 mL) to achieve a final concentration of 2 mg/mL collagen.

[2] = tested on: IL-6; experiment: CIA rats, serum IL-6 ELISA; details: for IL-6: serum
Description: The presence of catabolic cytokines IL-6/TNF-α was measured using the Rat IL-6/TNF-α Quantikine ELISA kit from RandD Systems as follows: undiluted serum was added to a microplate coated with polyclonal IL-6/TNF-α antibody and allowed to bind for 2 hours at room temperature. The microplate was washed thoroughly to remove unbound serum, and then a polyclonal enzyme-conjugated IL-6/TNF-α antibody was added and allowed to bind for 2 hours at room temperature. Washing was repeated, enzyme substrate was added, and the plate was developed for 30 minutes at room temperature. After the addition of stop solution, the absorbance was read at 450 nm and the concentration of IL-6/TNF-α calculated based on the absorbance readings of an IL-6/TNF-α standard curve.

[3] = tested on: IL-1β; experiment: CIA rats, serum IL-1β ELISA; details: AMK CIA study; MTX 75 μg/kg, AMK 200 mg/kg oral
Description: The presence of catabolic cytokines IL-1β, TNF-α, or IL-6 was measured using Rat IL-1, TNF-α, and IL-6 Quantikine ELISA kit from R and D Systems (product #: RLB00 for IL-1β, RTA00 for TNF-α, and R6000B for IL-6) as follows: diluted serum was added to a microplate coated with polyclonal IL-1, TNF-α, or IL-6 antibody and allowed to bind for 2 h at room temperature. The microplate was washed thoroughly to remove unbound serum and then a polyclonal enzyme-conjugated IL-1β, TNF-α, or IL-6 antibody was added and allowed to bind for 2 h at room temperature. Washing was repeated, enzyme substrate was added, and the plate was developed for 30 min at room temperature. After the addition of stop solution, the absorbance was read at 450 nm, multiplied by dilution factor, and the concentration of IL-1β/TNF-α/IL-6 calculated based on the absorbance readings of an IL-1β/TNF-α/TL-6 standard curve.

[4] = tested on: type II collagen synthesis and degradation; experiment: CIA rats, Z score of type II collagen synthesis and degradation (PIIANP, uCTX-II)
Excerpt: Previously, Garnero et al measured these markers [Type II collagen synthesis and degradation: N-propeptide of type IIA procollagen (PIIANP) and urine CTX-II, respectively] and correlated them to findings on radiographs and arthroscopy of OA patients. […] They explained their observation that these patients have an uncoupling effect between collagen synthesis and degradation, which is leaning more towards the progression of OA.
Adapting their method, we calculated the Z-factor for cartilage synthesis and degradation using data from PIIANP and uCTX-II, respectively. For an intervention to drive the OA catabolic progression towards anabolic or regenerative activities, the Z-score values have to come close to zero.

[5] = AP CIA study, Methotrexate 0.5 mg/kg, AP 200 mg/kg oral

Question: `CN(Cc1cnc2nc(N)nc(N)c2n1)c1ccc(C(=O)N[C@@H](CCC(=O)O)C(=O)O)cc1` [Methotrexate] was tested. Which “percent reduction of area under the arthritis severity curve vs vehicle-treated CIA” value ([1]; AMK CIA study, MTX 75 μg/kg, AMK 200 mg/kg oral, AUC days 9-21) did it give?
Answer: Its value is 62.55% and 62.6%.

Question: And the “AUC(d9-d21) (Mean ± SD) Arthritis index” value ([1]; AMK study, MTX 75 μg/kg, AMK 200 mg/kg)?
Answer: The value was 4.87 ± 0.21.

Question: What about the “average arthritis severity score at the end of the study” value [1, 5] of the same compound?
Answer: The value was 1.1±0.17.

Question: What about the “percent reduction of area under the arthritis severity curve vs vehicle-treated CIA” value [1, 5] of the same compound?
Answer: The value was 78.8%.

Question: What about the “AUC(d9-d21) (Mean ± SD) Arthritis index” value ([1]; AP study, MTX 0.5 mg/kg, AP 200 mg/kg) of the same compound?
Answer: The value was 5.00 ± 0.48.

Question: What about the “Arthritis Index, Mean” value ([1]; Boost, MTX 0.5 mg/kg, AP 200 mg/kg) of the same compound?
Answer: Its value is 0.00.

Question: And the “Arthritis Index, Mean” value ([1]; CIA, MTX 75 μg/kg, AMK 200 mg/kg oral, Boost)?
Answer: Its value is 0.00.

Question: And the “Arthritis Index, Mean” value ([1]; CIA, MTX 75 μg/kg, AMK 200 mg/kg oral, Day 9)?
Answer: The value was 0.00.

Question: What about the “Arthritis Index, Mean” value ([1]; CIA, MTX 75 μg/kg, AMK 200 mg/kg oral, Day 10) of the same compound?
Answer: Its value is 0.00.

Question: And the “Arthritis Index, Mean” value ([1]; CIA, MTX 75 μg/kg, AMK 200 mg/kg oral, Day 11)?
Answer: The value was 0.00.

Question: And the “Arthritis Index, Mean” value ([1]; CIA, MTX 75 μg/kg, AMK 200 mg/kg oral, Day 12)?
Answer: The value was 0.23*.

Question: And the “Arthritis Index, Mean” value ([1]; CIA, MTX 75 μg/kg, AMK 200 mg/kg oral, Day 13)?
Answer: The value was 0.46^¥.

Question: What about the “Arthritis Index, Mean” value ([1]; CIA, MTX 75 μg/kg, AMK 200 mg/kg oral, Day 14) of the same compound?
Answer: The value was 0.70^¥.

Question: What about the “Arthritis Index, Mean” value ([1]; CIA, MTX 75 μg/kg, AMK 200 mg/kg oral, Day 15) of the same compound?
Answer: Its value is 1.10^€.

Question: And the “Arthritis Index, Mean” value ([1]; CIA, MTX 75 μg/kg, AMK 200 mg/kg oral, Day 16)?
Answer: Its value is 1.50^€.

Question: And the “Arthritis Index, Mean” value ([1]; CIA, MTX 75 μg/kg, AMK 200 mg/kg oral, Priming)?
Answer: Its value is 0.00.

Question: What about the “Arthritis Index, Mean” value ([1]; CIA, MTX 75 μg/kg, AMK 200 mg/kg oral, day 17) of the same compound?
Answer: The value was 1.76^€.

Question: What about the “Arthritis Index, Mean” value ([1]; CIA, MTX 75 μg/kg, AMK 200 mg/kg oral, day 19) of the same compound?
Answer: The value was 2.03^€.

Question: And the “Arthritis Index, Mean” value ([1]; CIA, MTX 75 μg/kg, AMK 200 mg/kg oral, day 21 (end of study))?
Answer: Its value is 1.78±0.79.

Question: What about the “Arthritis Index, Mean” value ([1]; CIA, MTX 75 μg/kg, AMK 200 mg/kg oral, day 21 (end of study), listed as MTX) of the same compound?
Answer: The value was 1.78^€.

Question: And the “Arthritis Index, Mean” value ([1]; Day 10, MTX 0.5 mg/kg, AP 200 mg/kg)?
Answer: Its value is 0.

Question: What about the “Arthritis Index, Mean” value ([1]; Day 11, MTX 0.5 mg/kg, AP 200 mg/kg) of the same compound?
Answer: Its value is 0.

Question: And the “Arthritis Index, Mean” value ([1]; Day 12, MTX 0.5 mg/kg, AP 200 mg/kg)?
Answer: The value was 0.05**.

Question: And the “Arthritis Index, Mean” value ([1]; Day 13, MTX 0.5 mg/kg, AP 200 mg/kg)?
Answer: Its value is 0**.

Question: And the “Arthritis Index, Mean” value ([1]; Day 14, MTX 0.5 mg/kg, AP 200 mg/kg)?
Answer: The value was 0**.

Question: And the “Arthritis Index, Mean” value ([1]; Day 15, MTX 0.5 mg/kg, AP 200 mg/kg)?
Answer: Its value is 0.35**.

Question: And the “Arthritis Index, Mean” value ([1]; Day 16, MTX 0.5 mg/kg, AP 200 mg/kg)?
Answer: Its value is 0.875**.

Question: What about the “Arthritis Index, Mean” value ([1]; Day 17, MTX 0.5 mg/kg, AP 200 mg/kg) of the same compound?
Answer: The value was 1**.

Question: And the “Arthritis Index, Mean” value ([1]; Day 19, MTX 0.5 mg/kg, AP 200 mg/kg)?
Answer: The value was 1.075**.

Question: What about the “Arthritis Index, Mean” value ([1]; Day 20, MTX 0.5 mg/kg, AP 200 mg/kg) of the same compound?
Answer: The value was 1.1**.

Question: And the “Arthritis Index, Mean” value ([1]; Priming, MTX 0.5 mg/kg, AP 200 mg/kg)?
Answer: The value was 0.00.

Question: What about the “% Inhibition Arthritis index (AUC)” value ([1]; MTX 75 μg/kg, AMK 200 mg/kg) of the same compound?
Answer: The value was 62.55%.

Question: What about the “% Inhibition Arthritis index (AUC)” value ([1]; MTX 0.5 mg/kg, AP 200 mg/kg) of the same compound?
Answer: Its value is 78.78%.

Question: What about the “serum IL-6 inhibition compared to diseased control” value ([2]; AMK CIA study, MTX 75 μg/kg, AMK 200 mg/kg oral) of the same compound?
Answer: The value was 78.6%.

Question: And the IL-6 ([2]; AMK study, MTX (75 μg/mL), AMK (200 mg/kg))?
Answer: Its IL-6 is 10.23 ± 7.37 pg/mL.

Question: What about the IL-6 ([2]; AP study, MTX (0.5 mg/mL), AP (200 mg/kg) oral 3 weeks) of the same compound?
Answer: Its IL-6 is 3.33 ± 6.44 pg/mL.

Question: And the “serum IL-1β inhibition compared to diseased control” value [3]?
Answer: Its value is 71.5%.

Question: And the “Z score, Imbalance (catabolic − anabolic), Mean ± SE” value ([4]; (CTX-II)-(PIIANP), Methotrexate 0.5 mg/kg (printed), AMK 200 mg/kg)?
Answer: The value was 1.30 ± 0.33.

Question: And the “Z score, Regeneration, Mean ± SE” value ([4]; from PIIANP, SDs from mean of normal control rats, Methotrexate 0.5 mg/kg (printed), AMK 200 mg/kg)?
Answer: The value was −0.90 ± 0.16.

Question: What about the “improvement in driving OA progression to normalcy relative to vehicle treated CIA rats” value ([4]; from imbalance Z score) of the same compound?
Answer: Its value is 56.4%.

Question: What about the “Z score, Degradation, Mean ± SE” value ([4]; from uCTX-II, SDs from mean of normal control rats, Methotrexate 0.5 mg/kg (printed), AMK 200 mg/kg) of the same compound?
Answer: The value was 0.39 ± 0.34.

From patent US20220000964A1, “Compositions and Methods for Regulating Homeostasis of Chondrocytes, Extracellular Matrix, Articular Cartilage, and Phenotype of Arthritis” (Unigen, Inc., priority 2020, published 2022)
